The record followed here is patent US20200048259A1, “KDM5 INHIBITORS” (priority 2016, published 2020).

Molecules are shown by their SMILES.

The target of the first experiment is T1, Full-length KDM5B enzyme (Homo sapiens, UniProt Q9UGL1).
T1 construct: recombinant protein from baculovirus-transfected Sf21 cells: full-length KDM5B; MW=176.825 kDa; host or cells: baculovirus-transfected Sf21 insect cells
T1 sequence (Q9UGL1 whole entry): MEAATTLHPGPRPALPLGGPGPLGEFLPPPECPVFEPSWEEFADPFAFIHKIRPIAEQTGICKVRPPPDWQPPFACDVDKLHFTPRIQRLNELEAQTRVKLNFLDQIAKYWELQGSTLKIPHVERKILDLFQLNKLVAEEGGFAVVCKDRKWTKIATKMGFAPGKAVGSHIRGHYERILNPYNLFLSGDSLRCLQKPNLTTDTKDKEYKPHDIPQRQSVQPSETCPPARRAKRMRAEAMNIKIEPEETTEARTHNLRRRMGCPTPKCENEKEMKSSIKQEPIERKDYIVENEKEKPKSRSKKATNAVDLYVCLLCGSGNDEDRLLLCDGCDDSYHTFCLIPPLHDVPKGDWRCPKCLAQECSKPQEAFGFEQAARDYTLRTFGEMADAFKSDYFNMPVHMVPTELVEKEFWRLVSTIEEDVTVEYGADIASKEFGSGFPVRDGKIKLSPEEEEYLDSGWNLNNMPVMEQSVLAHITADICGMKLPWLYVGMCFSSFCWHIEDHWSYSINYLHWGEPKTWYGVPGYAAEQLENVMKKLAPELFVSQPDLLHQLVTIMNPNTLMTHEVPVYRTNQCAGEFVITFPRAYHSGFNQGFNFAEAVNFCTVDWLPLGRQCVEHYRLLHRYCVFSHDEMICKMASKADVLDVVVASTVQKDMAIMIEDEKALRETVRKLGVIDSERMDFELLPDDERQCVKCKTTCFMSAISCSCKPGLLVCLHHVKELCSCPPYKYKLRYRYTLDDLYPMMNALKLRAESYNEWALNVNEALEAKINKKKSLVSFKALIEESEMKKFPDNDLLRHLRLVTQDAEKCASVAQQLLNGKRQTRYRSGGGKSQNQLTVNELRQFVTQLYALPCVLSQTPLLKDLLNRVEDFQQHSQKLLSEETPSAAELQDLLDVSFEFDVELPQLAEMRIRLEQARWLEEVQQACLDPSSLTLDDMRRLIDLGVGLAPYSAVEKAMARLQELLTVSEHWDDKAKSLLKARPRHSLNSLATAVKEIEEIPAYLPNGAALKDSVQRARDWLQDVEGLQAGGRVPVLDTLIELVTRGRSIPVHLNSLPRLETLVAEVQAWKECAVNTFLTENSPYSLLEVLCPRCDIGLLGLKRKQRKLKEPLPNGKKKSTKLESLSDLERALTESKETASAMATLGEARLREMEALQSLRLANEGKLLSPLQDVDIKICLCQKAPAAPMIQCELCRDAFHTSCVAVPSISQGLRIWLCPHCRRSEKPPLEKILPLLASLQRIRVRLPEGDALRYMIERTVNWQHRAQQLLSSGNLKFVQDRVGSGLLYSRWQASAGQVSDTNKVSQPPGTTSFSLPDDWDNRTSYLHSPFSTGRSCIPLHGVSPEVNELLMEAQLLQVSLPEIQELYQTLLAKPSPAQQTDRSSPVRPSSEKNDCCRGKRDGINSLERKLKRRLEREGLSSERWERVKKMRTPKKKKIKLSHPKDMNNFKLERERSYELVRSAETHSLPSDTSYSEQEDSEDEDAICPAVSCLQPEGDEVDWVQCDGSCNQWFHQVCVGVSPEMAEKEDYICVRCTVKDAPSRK
As to the kind of experiment: KDM5B TR-FRET Enzyme Activity Assay (LANCE).
Conditions: not given
The experiment is classed as biochemical. As for the experimental part: KDM5B TR-FRET Enzyme Activity Assay
KDM5B enzymatic activity was determined with the LANCE (Lanthanide Chelate Excite) TR-FRET (Time-resolved fluorescence resonance energy transfer) assay. […] Following a 30 minutes compound and enzyme incubation in a humidified chamber, each reaction was initiated by the addition of 1 μL 1× assay buffer containing […] biotinylated H3K4Me3 peptide, and 500 nM α-ketoglutarate. The final reaction in each well of 5 μL consists of 5 nM KDM5B, 500 nM biotinylated-peptide, and 500 nM α-ketoglutarate. De-methylation reactions were allowed to proceed for 60 minutes. Reactions were immediately quenched by the addition of 5 μL of 2× Lance Detection Buffer (PerkinElmer) with 0.5 mM EDTA and 2 nM of Eu-anti-H3K4Mel-2 antibody, and 30 nM of Streptavidin-conjugated Dylight 650 detection reagents. After 60 minutes incubation with detection reagents, reaction plates were read on a PerkinElmer EnVision plate reader using standard TR-FRET protocol. Briefly, excitation of donor molecules (Eu-chelate-anti-H3K4Me1-2-antibody) with a laser light source at 337 nm produces energy that can be transferred to Dylight-650 acceptor molecules if this donor:acceptor pair is within close proximity.
Fluorescence intensity at both 665 nm (acceptor) and 615 nm (donor) are measured and a TR-FRET ratio calculated for each well (acceptor intensity/donor intensity). IC50 values were determined by 4 parameter robust fit of TR-FRET ratio values vs. (Log 10) compound concentrations.
Take `Cc1nc2[nH]c(C)c(Cc3ccccc3)c(=O)n2n1` [Example 7-4, 6-benzyl-2,5-dimethyl[1,2,4]triazolo[1,5-a]pyrimidin-7(4H)-one]: the IC50 is over 100 µM.

`Cc1nc2[nH]c(C(C)C)cc(=O)n2n1` [Example 7-6, 2-methyl-5-(1-methylethyl)[1,2,4]triazolo[1,5-a]pyrimidin-7(4H)-one]: the IC50 is over 100 µM. `CCCCc1c(C)[nH]c2nc(C)nn2c1=O` [Example 7-8, 6-butyl-2,5-dimethyl[1,2,4]triazolo[1,5-a]pyrimidin-7(4H)-one] gave an IC50 of over 100 µM. The same measure, in the same setting: as for `Cc1[nH]c2nc(C3CC(F)(F)C3)nn2c(=O)c1C(C)C` [Example 7-23, 2-(3,3-difluorocyclobutyl)-5-methyl-6-(1-methylethyl)[1,2,4]triazolo[1,5-a]pyrimidin-7(4H)-one], the figure is over 100 µM. The same measure, in the same setting: as for `Cc1[nH]c2nc(-c3ccco3)nn2c(=O)c1C(C)C` [Example 7-27, 2-furan-2-yl-5-methyl-6-(1-methylethyl)[1,2,4]triazolo[1,5-a]pyrimidin-7(4H)-one], the figure is over 100 µM; as for `Cc1[nH]c2nc(-c3ccccn3)nn2c(=O)c1C(C)C` [Example 7-28, 5-methyl-6-(1-methylethyl)-2-pyridin-2-yl[1,2,4]triazolo[1,5-a]pyrimidin-7(4H)-one], over 100 µM; as for `Cc1[nH]c2nc(C(C)C)nn2c(=O)c1C(C)C` [Example 7-29, 5-methyl-2,6-bis(1-methylethyl)[1,2,4]triazolo[1,5-a]pyrimidin-7(4H)-one], 35.4 µM.

`Cc1[nH]c2nc(N3CCOCC3)nn2c(=O)c1C(C)C` [Example 7-30, 5-methyl-6-(1-methylethyl)-2-morpholin-4-yl[1,2,4]triazolo[1,5-a]pyrimidin-7(4H)-one] came in with an IC50 of over 100 µM.

On to `Cc1nc2[nH]c(C(C)(C)C)cc(=O)n2n1` [Example 7-38, 5-tert-butyl-2-methyl[1,2,4]triazolo[1,5-a]pyrimidin-7(4H)-one], for which the IC50 is over 100 µM.

Turning to `Cc1nc2[nH]c(C(F)(F)C(F)(F)F)cc(=O)n2n1` [Example 7-41, 2-methyl-5-(pentafluoroethyl)[1,2,4]triazolo[1,5-a]pyrimidin-7(4H)-one], the IC50 is over 100 µM.

The experiment is the same for the next values; noted with them: 5 nM full-length KDM5B, biotinylated H3K4Me3 peptide, 500 nM α-ketoglutarate; ten point titration 100000 nM to 5.08 nM; read-out: IC50.
As to `CCCc1cc(=O)n2nc(C)nc2[nH]1` [Example 7-2, 2-methyl-5-propyl[1,2,4]triazolo[1,5-a]pyrimidin-7(4H)-one], the IC50 was 97 µM. On to `CCc1c(C)[nH]c2nc(N)nn2c1=O` [Example 7-3, 2-amino-6-ethyl-5-methyl-[1,2,4]triazolo[1,5-a]pyrimidin-7(4H)-one], for which the half-inhibitory concentration (IC50) came to 22.2 µM. Consider `CCc1c(C)[nH]c2nc(C)nn2c1=O` [Example 7-5, 6-ethyl-2,5-dimethyl-[1,2,4]triazolo[1,5-a]pyrimidin-7(4H)-one], for which the half-inhibitory concentration (IC50) came to 27.8 µM.

For `Cc1nc2[nH]c(C)c(C)c(=O)n2n1` [Example 7-7, 2,5,6-trimethyl[1,2,4]triazolo[1,5-a]pyrimidin-7(4H)-one], the IC50 was found to be 32 µM. For the molecule `CCc1c(C)[nH]c2nc(C(F)(F)F)nn2c1=O` [Example 7-9, 6-ethyl-5-methyl-2-(trifluoromethyl)[1,2,4]triazolo[1,5-a]pyrimidin-7(4H)-one], the IC50 was found to be 9.09 µM. On the same count and under the same terms, as for `Cc1cc(=O)n2nc(-c3ccncc3)nc2[nH]1` [Example 7-10, 5-methyl-2-(pyridin-4-yl)-[1,2,4]triazolo[1,5-a]pyrimidin-7(4H)-one], the figure is 4.28 µM; as for `Cc1nc2[nH]c(C(F)(F)F)cc(=O)n2n1` [Example 7-11, 2-methyl-5-(trifluoromethyl)-[1,2,4]triazolo[1,5-a]pyrimidin-7(4H)-one], 27.9 µM.

Regarding `CCc1cc(=O)n2nc(C)nc2[nH]1` [Example 7-12, 5-ethyl-2-methyl-[1,2,4]triazolo[1,5-a]pyrimidin-7(4H)-one], the IC50 came out at 73.7 µM. As to `CCOC(=O)c1[nH]c2nc(C)nn2c(=O)c1Cl` [Example 7-13, ethyl 6-chloro-2-methyl-7-oxo-4,7-dihydro[1,2,4]triazolo[1,5-a]pyrimidine-5-carboxylate], the 50% inhibitory concentration (IC50) was determined as 2.96 µM. For `CCc1c(C)[nH]c2nc(C(=O)OC)nn2c1=O` [Example 7-14, methyl 6-ethyl-5-methyl-7-oxo-4,7-dihydro[1,2,4]triazolo[1,5-a]pyrimidine-2-carboxylate], the IC50 was 34.9 µM. The same measure, in the same setting: as for `COC(=O)Cc1c(C)[nH]c2nc(C(=O)OC)nn2c1=O` [Example 7-15, methyl 6-(2-methoxy-2-oxoethyl)-5-methyl-7-oxo-4,7-dihydro[1,2,4]triazolo[1,5-a]pyrimidine-2-carboxylate], the figure is 68.1 µM; as for `Cc1[nH]c2nc(N)nn2c(=O)c1C(C)C` [Example 7-16, 2-amino-5-methyl-6-(1-methylethyl)[1,2,4]triazolo[1,5-a]pyrimidin-7(4H)-one], 3.41 µM; as for `Cc1[nH]c2nc(C3CC3)nn2c(=O)c1C(C)C` [Example 7-18, 2-cyclopropyl-5-methyl-6-(1-methylethyl)[1,2,4]triazolo[1,5-a]pyrimidin-7(4H)-one], 48.6 µM. On the same count and under the same terms, as for `Cc1[nH]c2nc(C3CCC3)nn2c(=O)c1C(C)C` [Example 7-19, 2-cyclobutyl-5-methyl-6-(1-methylethyl)[1,2,4]triazolo[1,5-a]pyrimidin-7(4H)-one], the figure is 92.7 µM; as for `CCc1c(-c2ccccc2)[nH]c2nc(C)nn2c1=O` [Example 7-20, 6-ethyl-2-methyl-5-phenyl[1,2,4]triazolo[1,5-a]pyrimidin-7(4H)-one], 3.97 µM; as for `Cc1nc2[nH]c(C)c(C(C)C)c(=O)n2n1` [Example 7-21, 2,5-dimethyl-6-(1-methylethyl)[1,2,4]triazolo[1,5-a]pyrimidin-7(4H)-one], 7.99 µM.

`Cc1[nH]c2nc(-c3ccc(F)cc3)nn2c(=O)c1C(C)C` [Example 7-24, 2-(4-fluorophenyl)-5-methyl-6-(1-methylethyl)[1,2,4]triazolo[1,5-a]pyrimidin-7(4H)-one]: the half-inhibitory concentration (IC50) amounted to 33.7 µM. On the same count and under the same terms, as for `Cc1[nH]c2nc(-c3ccc(C(F)(F)F)cc3)nn2c(=O)c1C(C)C` [Example 7-25, 5-methyl-6-(1-methylethyl)-2-[4-(trifluoromethyl)phenyl][1,2,4]triazolo[1,5-a]pyrimidin-7(4H)-one], the figure is 67.6 µM.

Turning to `Cc1[nH]c2nc(-c3ccccc3Cl)nn2c(=O)c1C(C)C` [Example 7-26, 2-(2-chlorophenyl)-5-methyl-6-(1-methylethyl)[1,2,4]triazolo[1,5-a]pyrimidin-7(4H)-one], the concentration for half-maximal inhibition (IC50) was found to be 95.8 µM.

Take `Cc1nc2[nH]c(C)c(Cl)c(=O)n2n1` [Example 7-31, 6-chloro-2,5-dimethyl[1,2,4]triazolo[1,5-a]pyrimidin-7(4H)-one]: the 50% inhibitory concentration (IC50) is 39.2 µM.

Turning to `Cc1[nH]c2nc(C(F)(F)F)nn2c(=O)c1C(C)C` [Example 7-32, 5-methyl-6-(1-methylethyl)-2-(trifluoromethyl)[1,2,4]triazolo[1,5-a]pyrimidin-7(4H)-one], the IC50 came to 2.07 µM. Consider `CCc1c(-c2ccn(C)n2)[nH]c2nc(C)nn2c1=O` [Example 7-33, 6-ethyl-2-methyl-5-(1-methyl-1H-pyrazol-3-yl)[1,2,4]triazolo[1,5-a]pyrimidin-7(4H)-one], for which the half-inhibitory concentration (IC50) came to 4.24 µM. `Cc1[nH]c2nc(Cl)nn2c(=O)c1C(C)C` [Example 7-34, 2-chloro-5-methyl-6-(1-methylethyl)[1,2,4]triazolo[1,5-a]pyrimidin-7(4H)-one]: the half-maximal inhibitory concentration (IC50) came to 1.25 µM. Same read-out and setting: as for `Cc1[nH]c2nc(Br)nn2c(=O)c1C(C)C` [Example 7-35, 2-bromo-5-methyl-6-(1-methylethyl)[1,2,4]triazolo[1,5-a]pyrimidin-7(4H)-one], the figure is 1.92 µM; as for `Cc1nc2[nH]c(-c3ccn(C)n3)cc(=O)n2n1` [Example 7-36, 2-methyl-5-(1-methyl-1H-pyrazol-3-yl)[1,2,4]triazolo[1,5-a]pyrimidin-7(4H)-one], 25.4 µM; as for `Cc1[nH]c2nc(CCCO)nn2c(=O)c1C(C)C` [Example 7-37, 2-(3-hydroxypropyl)-5-methyl-6-(1-methylethyl)[1,2,4]triazolo[1,5-a]pyrimidin-7(4H)-one], 66.5 µM. On the same count and under the same terms, as for `Cc1nc2[nH]c(-c3ccc(F)cc3)cc(=O)n2n1` [Example 7-39, 5-(4-fluorophenyl)-2-methyl[1,2,4]triazolo[1,5-a]pyrimidin-7(4H)-one], the figure is 8.07 µM; as for `Cc1nc2[nH]c(-c3ccoc3)cc(=O)n2n1` [Example 7-40, 5-furan-3-yl-2-methyl[1,2,4]triazolo[1,5-a]pyrimidin-7(4H)-one], 36.7 µM; as for `COc1c(C(F)(F)F)[nH]c2nc(C)nn2c1=O` [Example 7-42, 6-methoxy-2-methyl-5-(trifluoromethyl)[1,2,4]triazolo[1,5-a]pyrimidin-7(4H)-one], 21.1 µM. On the same count and under the same terms, the value for `Cc1nc2[nH]c(-c3ccccn3)cc(=O)n2n1` [Example 7-43, 2-methyl-5-pyridin-2-yl[1,2,4]triazolo[1,5-a]pyrimidin-7(4H)-one] was 23.2 µM.

Usually IC50 stands for the concentration needed to halve the response being measured.
